Among the data in ChEMBL document CHEMBL4229400, “Covalent inhibitors of nicotinamide N-methyltransferase (NNMT) provide evidence for target engagement challenges in situ” (Bioorg Med Chem Lett, 2018) are Activity and Ratio values, retold here.

Assay [1] addresses T1, Mitochondrial-processing peptidase subunit alpha (Homo sapiens) (UniProt Q10713).
T1 sequence (whole entry): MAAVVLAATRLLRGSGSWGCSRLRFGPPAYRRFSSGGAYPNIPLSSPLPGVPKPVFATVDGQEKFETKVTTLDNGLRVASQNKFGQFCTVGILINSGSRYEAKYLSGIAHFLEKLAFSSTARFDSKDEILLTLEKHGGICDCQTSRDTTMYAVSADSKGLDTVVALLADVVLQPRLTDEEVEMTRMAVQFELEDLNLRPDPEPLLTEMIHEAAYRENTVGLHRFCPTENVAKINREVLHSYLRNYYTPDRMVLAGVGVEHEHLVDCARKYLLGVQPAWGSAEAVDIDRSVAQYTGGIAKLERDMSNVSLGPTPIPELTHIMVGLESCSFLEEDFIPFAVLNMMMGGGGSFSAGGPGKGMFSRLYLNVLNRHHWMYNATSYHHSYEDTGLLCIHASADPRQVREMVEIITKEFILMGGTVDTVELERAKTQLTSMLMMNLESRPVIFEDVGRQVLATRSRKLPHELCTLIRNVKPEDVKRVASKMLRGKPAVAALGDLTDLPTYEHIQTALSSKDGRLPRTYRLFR
Put plainly: Binding affinity to PMPCA cysteine residue in human 786-O cell soluble proteomic lysate at 5 uM incubated for 1 hr followed by cell lysis by IA-alkyne probe based isoTOP-ABPP analysis.

Another assay has as its target T2, Zyxin (Homo sapiens) (UniProt Q15942).
T2 sequence (whole entry): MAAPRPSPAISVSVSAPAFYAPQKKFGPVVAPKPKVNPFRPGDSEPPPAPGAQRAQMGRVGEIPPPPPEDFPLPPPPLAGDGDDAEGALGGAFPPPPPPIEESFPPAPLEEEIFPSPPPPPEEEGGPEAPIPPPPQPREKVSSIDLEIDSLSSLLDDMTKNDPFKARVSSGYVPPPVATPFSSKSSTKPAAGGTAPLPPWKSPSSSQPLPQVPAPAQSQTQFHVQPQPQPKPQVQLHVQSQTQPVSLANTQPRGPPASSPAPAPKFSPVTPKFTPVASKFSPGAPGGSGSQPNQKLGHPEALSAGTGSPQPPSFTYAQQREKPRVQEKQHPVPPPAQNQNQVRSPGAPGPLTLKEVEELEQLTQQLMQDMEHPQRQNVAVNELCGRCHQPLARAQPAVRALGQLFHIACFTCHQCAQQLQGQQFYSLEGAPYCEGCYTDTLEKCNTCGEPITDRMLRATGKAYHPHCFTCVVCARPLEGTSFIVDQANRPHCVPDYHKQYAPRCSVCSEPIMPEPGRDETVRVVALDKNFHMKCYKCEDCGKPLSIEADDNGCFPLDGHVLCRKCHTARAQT
Put plainly: Binding affinity to ZYX cysteine residue in human 786-O cell soluble proteomic lysate at 5 uM incubated for 1 hr followed by cell lysis by IA-alkyne probe based isoTOP-ABPP analysis.

For assay [2], the target named is T3, Nicotinamide N-methyltransferase (Homo sapiens) (UniProt P40261).
T3 sequence (whole entry): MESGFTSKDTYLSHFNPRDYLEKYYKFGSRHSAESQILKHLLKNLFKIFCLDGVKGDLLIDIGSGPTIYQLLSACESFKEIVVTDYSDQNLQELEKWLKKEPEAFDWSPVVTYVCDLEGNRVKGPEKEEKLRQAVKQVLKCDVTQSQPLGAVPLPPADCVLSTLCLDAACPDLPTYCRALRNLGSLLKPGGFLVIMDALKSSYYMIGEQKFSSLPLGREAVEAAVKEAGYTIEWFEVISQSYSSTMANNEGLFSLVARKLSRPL
Put plainly: Binding affinity to NNMT C165 residue in human 786-O cell soluble proteomic lysate at 5 uM incubated for 1 hr followed by cell lysis by IA-alkyne probe based isoTOP-ABPP analysis relative to control.

Assay [3] has as its target Receptor expression-enhancing protein 5 (Homo sapiens) (UniProt Q00765). Put plainly: Binding affinity to REEP5 cysteine residue in human 786-O cell soluble proteomic lysate at 5 uM incubated for 1 hr followed by cell lysis by IA-alkyne probe based isoTOP-ABPP analysis.
Assay [4] deals with T4, Heme oxygenase 2 (Homo sapiens) (UniProt P30519).
T4 sequence (whole entry): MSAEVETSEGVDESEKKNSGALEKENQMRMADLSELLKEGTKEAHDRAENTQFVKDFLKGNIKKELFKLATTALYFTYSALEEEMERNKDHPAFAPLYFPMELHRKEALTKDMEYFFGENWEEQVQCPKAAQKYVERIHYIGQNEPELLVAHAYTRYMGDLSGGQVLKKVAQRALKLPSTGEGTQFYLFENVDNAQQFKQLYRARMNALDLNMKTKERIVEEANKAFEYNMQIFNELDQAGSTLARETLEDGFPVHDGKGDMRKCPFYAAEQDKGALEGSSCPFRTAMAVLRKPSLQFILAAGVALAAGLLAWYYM
Put plainly: Binding affinity to HMOX2 cysteine residue in human 786-O cell lysate at 5 uM incubated for 1 hr followed by cell lysis by IA-alkyne probe based isoTOP-ABPP analysis.

Assay [5] concerns the target T3, Nicotinamide N-methyltransferase (Homo sapiens). The assay is described as follows: Inhibition of SAH-rhodamine binding to NNMT in human 786-O cell soluble proteomic lysate assessed as ratio of observed rate constant to test compound concentration preincubated for 10 to 40 mins followed by SAH-rhodamine addition measured after 5 mins by Gel-based ABPP analysis.
Assay [6] addresses T5, Glutathione S-transferase omega-1 (Homo sapiens) (UniProt P78417).
T5 sequence (whole entry): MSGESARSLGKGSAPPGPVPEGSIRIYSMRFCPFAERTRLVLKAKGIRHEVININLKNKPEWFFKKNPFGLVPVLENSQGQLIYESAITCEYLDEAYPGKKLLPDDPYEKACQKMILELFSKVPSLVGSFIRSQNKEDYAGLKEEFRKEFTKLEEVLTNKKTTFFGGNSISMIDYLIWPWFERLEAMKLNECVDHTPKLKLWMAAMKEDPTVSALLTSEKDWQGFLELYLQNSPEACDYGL
Put plainly: Binding affinity to GSTO1 cysteine residue in human 786-O cell soluble proteomic lysate at 5 uM incubated for 1 hr followed by cell lysis by IA-alkyne probe based isoTOP-ABPP analysis.

The structures appear in SMILES notation. Active and inactive are the calls of the source. No cut-off for these calls is given here.

Receptor expression-enhancing protein 5 (Homo sapiens), sequence (Q00765 whole entry): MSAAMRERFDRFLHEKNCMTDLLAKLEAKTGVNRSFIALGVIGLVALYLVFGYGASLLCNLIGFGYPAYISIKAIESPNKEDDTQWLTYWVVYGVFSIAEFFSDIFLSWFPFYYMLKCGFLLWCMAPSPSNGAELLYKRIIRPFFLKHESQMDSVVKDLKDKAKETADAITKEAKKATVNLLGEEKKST

`O=C(Nc1cccnc1Cl)c1cc(N(CCCc2ccccc2)C(=O)CCl)cc(C(F)(F)F)c1`: the result (in assay [1]; on Zyxin (Homo sapiens)) was Active. In addition, the result in assay [2] was inactive.
Consider `CC(C)CCN(C(=O)CCl)c1cc(C(=O)NCc2cccc([N+](=O)[O-])c2)cc(C(F)(F)F)c1`, for which the outcome in assay [3], in assay [4] and in assay [6] was Active. In addition, the Ratio in assay [5] stood at 285 M⁻¹ s⁻¹.
